Source: patent US20240390386A1, “CDK8/19 INHIBITORS FOR PREVENTING DRUG RESISTANCE” (University of South Carolina, priority 2021, published 2024)
Where two headings read alike, the source gives them in different places.

Assays:
[1] = tested on: panel of 468 kinases; settings: 2000 nM; cited from earlier work
[2] = tested on: MDA-MB-468 xenografts; settings: for effect on tumor growth: SNX631 350 ppm medicated food
[3] = tested on: PEN061 PDX TNBC model
[4] = tested on: PEN027 PDX tumors; settings: for effect on event-free survival (KM): 38 days of treatment, event: tumor 2,000 mm^3 or euthanasia; for effect on tumor volume: first 10 days of treatment, everolimus 2 mg/kg daily gavage, SNX631-6 500 ppm food
[5] = everolimus 2 mg/kg daily gavage

SMILES	S(10) S-score [1]	S(35) S-score [1]	tolerability based on mouse body weights ([2]; SNX631 350 ppm food, everolimus 2 mg/kg daily gavage)	effect on tumor growth [2, 5]	toxicity based on average mouse body weights ([3]; SNX631-6 350 ppm food, everolimus 3 mg/kg daily gavage)	effect on tumor growth ([3]; after 63 days of treatment, SNX631-6 350 ppm food, everolimus 3 mg/kg daily gavage)	effect on event-free survival (KM) [4]	effect on tumor volume [4]	toxicity based on body weight changes ([4]; surviving mice)	development of resistance ([3]; continued up to 158 days)	development of in vivo resistance to everolimus ([2]; 150 days of study, tumor volumes and KM event-free survival (event: 500 mm^3))	duration of full suppression of xenograft growth before resistance [2, 5]	toxicity based on body weight changes ([4]; mouse, in vivo)
CN(C)C(=O)c1ccc(N2CCCN(c3ccnc4sc(C(N)=O)c(N)c34)CC2)cc1 [SNX631, 3-amino-4-(4-(4 (dimethylcarbamoyl)phenyl)-1,4-diazepan-1-yl)thieno[2,3-b]pyridine-2-carboxamide]	< 0.004	less than 0.02	very well tolerated	modest effect on tumor growth	–	–	–	–	–	–	–	–	–
[2H]C([2H])([2H])N(C(=O)c1ccc(N2CCCN(c3ccnc4sc(C(N)=O)c(N)c34)CC2)cc1)C([2H])([2H])[2H] [SNX631-6, 3-amino-4-(4-(4-(bis(methyl-d3)carbamoyl)phenyl)-1,4-diazepan-1-yl)thieno[2,3-b]pyridine-2-carboxamide]	–	–	–	–	lack of significant toxicity	strongly inhibited tumor growth	only a moderate effect on survival	significantly inhibited tumor volume	lack of significant toxicity	–	–	–	–
CO[C@H]1C[C@@H]2CC[C@@H](C)[C@@](O)(O2)C(=O)C(=O)N2CCCC[C@H]2C(=O)O[C@H]([C@H](C)C[C@@H]2CC[C@@H](OCCO)[C@H](OC)C2)CC(=O)[C@H](C)/C=C(\C)[C@@H](O)[C@@H](OC)C(=O)[C@H](C)C[C@H](C)/C=C/C=C/C=C/1C [everolimus, reference compound]	–	–	–	fully suppressed xenograft growth	–	–	strong effect	significantly inhibited tumor volume	–	many of the tumors treated with everolimus alone developed resistance	all the tumors developed everolimus resistance	~50 days of treatment	lack of significant toxicity
